According to PMC6298432 (ACS chemical biology, 2017):

Experiments:
[1] = tested on: M. tuberculosis ATCC 27294; assay: M. tuberculosis growth inhibition assay; format: cell-based
[2] = tested on: Mycobacterium tuberculosis (Mtb); format: cell-based; conditions: active = ≥80% inhibition of bacterial growth
[3] = tested on: mouse dihydrofolate reductase; conditions: cited from earlier work
E. coli = assay: Historical phenotypic screen for inhibitors of E. coli growth; format: cell-based; conditions: active = ≥80% inhibition of bacterial growth
[4] = tested on: FolA (dihydrofolate reductase, DHFR); assay: ALIS binding to FolA; design: species or system E. coli
[5] = molecular target: FolA (dihydrofolate reductase, DHFR); conditions: cited from earlier work

Row | Structure (SMILES) | Inhibition of Mtb growth (antibacterial activity) [1] | Activity in E. coli growth phenotypic screen (E. coli) | Binding to FolA detected in ALIS [4] | further results
1 | C#CCN(Cc1cnc2nc(N)nc(N)c2n1)c1ccc(C(=O)N[C@@H](CCC(=O)O)C(=O)O)cc1 [10-PAP, 10-propargylaminopterin] | retained bioactivity | – | – | Activity in Mtb growth phenotypic screen [2]: active; Inhibition of mouse dihydrofolate reductase [3]: inhibit
2 | COc1ccc(Cc2cnc(N)nc2N)cc1OC [Diaveridine] | – | active | binders detected | IC50 for FolA [5]: nanomolar
3 | CN(Cc1cnc2nc(N)nc(N)c2n1)c1ccc(C(=O)N[C@@H](CCC(=O)O)C(=O)O)cc1 [Methotrexate] | no efficacy | – | – | –
4 | COc1cc(Cc2cnc(N)nc2N)cc(OC)c1OC [Trimethoprim] | – | active | – | –
5 | COc1cc(Cc2cnc(N)nc2N)cc(OC)c1Br [brodimoprim] | – | – | failure to detect their binding | –
